According to publication PMC4048129 (Chemistry and physics of lipids, 2013):
In brackets after ≈: the same amount, converted by molar mass. Where two headings read alike, the source gives them in different places.

Assays:
[1] = tested on: CIMRSA 1; assay: Determination of bactericidal concentration; format: cell-based, Clinical isolate of methicillin-resistant S. aureus; conditions: CIMRSA 1 and 2 (both strains, text summary)
[2] = Cytotoxicity testing, MTT assay; format: cell-based; conditions: human
[3] = tested on: Mycobacterium tuberculosis; conditions: ref Carballeira et al., 2006; cited from earlier work
[4] = tested on: S. aureus (ATCC 29213); assay: Microdilution susceptibility testing; conditions: for IC50: ATCC29213, read-out: IC50 ± SEM
[5] = tested on: S. saprophyticus (ATCC 15305); assay: Microdilution susceptibility testing; conditions: for IC50: ATCC15305, read-out: IC50 ± SEM
[6] = tested on: B. cereus (ATCC 10876); assay: Microdilution susceptibility testing; conditions: for IC50: ATCC10876, read-out: IC50 ± SEM
[7] = tested on: E. coli (ATCC 25922); assay: Microdilution susceptibility testing
[8] = tested on: K. pneumoniae (ATCC 13883); assay: Microdilution susceptibility testing; conditions: for IC50: ATCC13883, read-out: IC50 ± SEM
[9] = tested on: P. aeruginosa (ATCC 27853); assay: Microdilution susceptibility testing; conditions: for IC50: ATCC27853, read-out: IC50 ± SEM
[10] = tested on: MRSA ATCC 43300; assay: Microdilution susceptibility testing; conditions: for IC50: read-out: IC50 ± SEM
[11] = tested on: CIMRSA 1; assay: Microdilution susceptibility testing; conditions: for IC50: read-out: IC50 ± SEM
[12] = tested on: CIMRSA 2; assay: Microdilution susceptibility testing; conditions: for IC50: read-out: IC50 ± SEM
[13] = tested on: Peripheral blood mononuclear cells (PBMC); assay: Cytotoxicity testing, MTT assay; format: cell-based
[14] = tested on: Neisseria gonorrhoeae, Neisseria meningitidis, and Bacteroides fragilis; conditions: N. gonorrhoeae, B. fragilis, ref Konthikamee et al., 1982; cited from earlier work
[15] = tested on: Leishmania donovani amastigotes; conditions: cited from earlier work
[16] = target: L. donovani DNA topoisomerase IB enzyme (LdTopIB); conditions: ref Carballeira et al., 2012; cited from earlier work
[17] = tested on: Gram-positive and Gram-negative bacteria; assay: Antibacterial activity against the bacteria of Table 1; conditions: for antibacterial activity: all bacteria presented in Table 1, result in words
[18] = peripheral blood mononuclear cells (PBMC)
[19] = Staphylococcus aureus, ATCC29213
[20] = Staphylococcus saprophyticus, ATCC15305, S. saprophyticus ATCC 15305, 37°C, 18-24 h
[21] = Klebsiella pneumoniae, ATCC13883
[22] = Pseudomonas aeruginosa, ATCC27853
[23] = Staphylococcus aureus, ATCC43300|MRSA
[24] = S. aureus ATCC 29213, 37°C, 18-24 h
[25] = S. saprophyticus ATCC 15305, 37°C, 18-24 h
[26] = B. cereus ATCC 10876, 37°C, 18-24 h
[27] = E. coli ATCC 25922, 37°C, 18-24 h
[28] = K. pneumoniae ATCC 13883, 37°C, 18-24 h
[29] = P. aeruginosa ATCC 27853, 37°C, 18-24 h

SMILES | bactericidal concentration [1] | MIC [4, 19] | IC50 ([4]; Staphylococcus aureus) | MIC [5, 20] | IC50 ([5]; Staphylococcus saprophyticus) | MIC ([6]; Bacillus cereus, ATCC10876) | IC50 ([6]; Bacillus cereus) | MIC ([7]; Escherichia coli, ATCC25922) | MIC [8, 21] | IC50 ([8]; Klebsiella pneumoniae) | MIC [9, 22] | MIC [10, 23] | IC50 [10, 23] | MIC ([11]; Staphylococcus aureus) | IC50 ([11]; Staphylococcus aureus) | MIC ([12]; Staphylococcus aureus) | IC50 ([12]; Staphylococcus aureus) | antibacterial activity [17] | also measured
CCCCCCCCCC#CCCC#CC(=O)O [2,6-HDA, 2,6-hexadecadiynoic acid] | 125 to 500 µg/mL | 31.3 µg/mL (≈ 126 µM) | 14.1 µg/mL (≈ 56.8 µM) | 62.5 µg/mL (≈ 252 µM) | 21.5 µg/mL (≈ 86.6 µM) | 62.5 µg/mL (≈ 252 µM) | 46.1 µg/mL (≈ 186 µM) | > 1000 µg/mL | 62.5 µg/mL (≈ 252 µM) | 31.2 µg/mL (≈ 126 µM) | 250 µg/mL (≈ 1010 µM) | 62.5 µg/mL (≈ 252 µM) | 22.3 µg/mL (≈ 89.8 µM) | 62.5 µg/mL (≈ 252 µM) | 39.5 µg/mL (≈ 159 µM) | 62.5 µg/mL (≈ 252 µM) | 22.4 µg/mL (≈ 90.2 µM) |  | IC50 at 3 days [2, 18]: 63.4 ± 0.3 µg/mL (≈ 255 µM); minimum inhibitory concentrations (MICs) [3]: 141 to 145 µM; IC50 ([9]; Pseudomonas aeruginosa): 132 µg/mL (≈ 533 µM)
CCCCCCC#CCCCCCC#CC(=O)O [2,9-HDA] | 125 to 500 µg/mL |  |  |  |  |  |  |  |  |  |  |  |  |  |  |  |  |  | PBMC cytotoxicity, IC50 ± SEM [13]: 93.3 ± 0.4 µg/mL; IC50 ± SEM [4, 24]: 94.0 ± 0.9 µg/mL (≈ 378 µM); MIC [4, 24]: 250 µg/mL (≈ 1010 µM); IC50 ± SEM [5, 25]: 61.5 ± 1.2 µg/mL (≈ 248 µM); MIC [5, 25]: 125 µg/mL (≈ 503 µM); IC50 ± SEM [6, 26]: 34.2 ± 0.3 µg/mL (≈ 138 µM); MIC [6, 26]: 62.5 µg/mL (≈ 252 µM); MIC [7, 27]: >1,000 μg/mL; IC50 ± SEM [8, 28]: 135.4 ± 0.7 µg/mL (≈ 545 µM); MIC [8, 28]: 250 µg/mL (≈ 1010 µM); MIC [9, 29]: >1,000 μg/mL; IC50 ± SEM ([10]; MRSA ATCC 43300): 203.5 ± 2.6 µg/mL (≈ 819 µM); MIC ([10]; MRSA ATCC 43300): 500 µg/mL (≈ 2010 µM); IC50 ± SEM ([11]; CIMRSA 1): 102.1 ± 2.4 µg/mL (≈ 411 µM); MIC ([11]; CIMRSA 1): 250 µg/mL (≈ 1010 µM); IC50 ± SEM ([12]; CIMRSA 2): 76.0 ± 2.4 µg/mL (≈ 306 µM); MIC ([12]; CIMRSA 2): 250 µg/mL (≈ 1010 µM)
O=C(O)c1cn(C2CC2)c2cc(N3CCNCC3)c(F)cc2c1=O [Ciprofloxacin, reference compound] |  | 0.25 µg/mL (≈ 0.754 µM) | 0.14 µg/mL (≈ 0.423 µM) | < 0.002 µg/mL |  | 0.05 µg/mL (≈ 0.151 µM) | 0.03 µg/mL (≈ 0.0905 µM) | < 0.008 µg/mL | 0.24 µg/mL (≈ 0.724 µM) | 0.13 µg/mL (≈ 0.392 µM) | 0.24 µg/mL (≈ 0.724 µM) | 0.5 µg/mL (≈ 1.51 µM) | 0.2 µg/mL (≈ 0.604 µM) |  |  |  |  |  | IC50 at 3 days [2]: 66.4 ± 0.6 µg/mL (≈ 200 µM); IC50 ([9]; Pseudomonas aeruginosa): 0.11 µg/mL (≈ 0.332 µM)
CCCCCCCCCCCCCC#CC(=O)O [Compound 2-HDA, 2-hexadecynoic acid] | 7.8 µg/mL | 15.6 µg/mL (≈ 61.8 µM) | 6.2 µg/mL (≈ 24.6 µM) | 15.5 µg/mL (≈ 61.4 µM) | 8.8 µg/mL (≈ 34.9 µM) | 31.3 µg/mL (≈ 124 µM) | 17.2 µg/mL (≈ 68.1 µM) | > 1000 µg/mL | 7.8 µg/mL (≈ 30.9 µM) | 6.1 µg/mL (≈ 24.2 µM) | 125 µg/mL (≈ 495 µM) | 15.6 µg/mL (≈ 61.8 µM) | 9.4 µg/mL (≈ 37.2 µM) | 3.9 µg/mL (≈ 15.5 µM) | 3.3 µg/mL (≈ 13.1 µM) | 3.9 µg/mL (≈ 15.5 µM) | 3.4 µg/mL (≈ 13.5 µM) |  | IC50 at 3 days [2, 18]: 57.2 ± 0.1 µg/mL (≈ 227 µM); active concentrations [14]: 5.0 to 21.4 µM; minimum inhibitory concentrations (MICs) [3]: 141 to 145 µM; IC50 ([15]; L. donovani amastigotes, ref Tasdemir et al., 2010): 17.8 µM; IC50 [16]: 28.7 µM; MIC [5, 25]: 15.6 µg/mL (≈ 61.8 µM); IC50 ([9]; Pseudomonas aeruginosa): 87.8 µg/mL (≈ 348 µM); MIC ([11]; Staphylococcus aureus, MRSA): 3.9 µg/mL (≈ 15.5 µM); MIC ([17]; read-out: MICs): 7.8 to 125 µg/mL (≈ 30.9 to 495 µM)
CCCCCCCCCCCCCC#CCO [Compound 2-HDOH, 2-Hexadecyn-1-ol] |  | > 1000 µg/mL |  | > 1000 µg/mL |  | > 1000 µg/mL |  | > 1000 µg/mL | > 1000 µg/mL |  | > 1000 µg/mL |  |  |  |  |  |  | not active | 
CCCCCCCCCCCCCC#CCOC1CCCCO1 (stereo not shown) [Compound 2-HDOTHP, 2-(2-Hexadecynyloxy)-tetrahydro-2H-pyran] |  | > 1000 µg/mL |  | > 1000 µg/mL |  | > 1000 µg/mL |  | > 1000 µg/mL | > 1000 µg/mL |  | > 1000 µg/mL |  |  |  |  |  |  | inactive | 
CCCCCCCCCCCCCCCCCC#CC(=O)O [Compound 2-ICA, 2-icosanoic acid] |  |  |  |  |  |  |  |  |  |  |  |  |  |  |  |  |  | did not show antibacterial activity | MIC [4, 24]: >1,000 μg/mL; MIC [5, 25]: >1,000 μg/mL; MIC [6, 26]: >1,000 μg/mL; MIC [7, 27]: >1,000 μg/mL; MIC [8, 28]: >1,000 μg/mL; MIC [9, 29]: >1,000 μg/mL
CCCCCCCCCCCCCCCC#CC(=O)O [Compound 2-ODA, 2-Octadecynoic acid] | 15.6 µg/mL | 15.6 µg/mL (≈ 55.6 µM) | 8.1 µg/mL (≈ 28.9 µM) | 125 µg/mL (≈ 446 µM) | 68.8 µg/mL (≈ 245 µM) | 15.6 µg/mL (≈ 55.6 µM) | 11.9 µg/mL (≈ 42.4 µM) | > 1000 µg/mL | 7.8 µg/mL (≈ 27.8 µM) | 5.6 µg/mL (≈ 20 µM) | > 1000 µg/mL | 7.8 µg/mL (≈ 27.8 µM) | 5.5 µg/mL (≈ 19.6 µM) | 7.8 µg/mL (≈ 27.8 µM) | 4.3 µg/mL (≈ 15.3 µM) | 7.8 µg/mL (≈ 27.8 µM) | 5.5 µg/mL (≈ 19.6 µM) |  | IC50 at 3 days [2, 18]: 58.9 ± 0.1 µg/mL (≈ 210 µM); IC50 ([15]; L. donovani, ref Carballeira et al., 2012): 11 µM; IC50 [16]: 5.3 µM
CCCCCCCCCCCCCCCC#CCO [Compound 2-ODOH, 2-Octadecyn-1-ol] |  | > 1000 µg/mL |  | > 1000 µg/mL |  | > 1000 µg/mL |  | > 1000 µg/mL | > 1000 µg/mL |  | > 1000 µg/mL |  |  |  |  |  |  |  | 
CCCCCCCCCCCCCCCC#CCOC1CCCCO1 (stereo not shown) [Compound 2-ODOTHP, 2-(2-Octadecynyloxy)-tetrahydro-2H-pyran] |  | > 1000 µg/mL |  | > 1000 µg/mL |  | > 1000 µg/mL |  | > 1000 µg/mL | > 1000 µg/mL |  | > 1000 µg/mL |  |  |  |  |  |  | inactive | 
COc1cccc(OC)c1C(=O)N[C@@H]1C(=O)N2[C@@H]1SC(C)(C)[C@@H]2C(=O)O [Methicillin, reference compound] |  | 0.06 µg/mL (≈ 0.158 µM) | 0.03 µg/mL (≈ 0.0789 µM) | 0.12 µg/mL (≈ 0.315 µM) | 0.06 µg/mL (≈ 0.158 µM) | 62.5 µg/mL (≈ 164 µM) | 38.2 µg/mL (≈ 100 µM) | > 1000 µg/mL | 0.98 µg/mL (≈ 2.58 µM) | 0.36 µg/mL (≈ 0.946 µM) | > 1000 µg/mL | 1.95 µg/mL (≈ 5.13 µM) | 0.98 µg/mL (≈ 2.58 µM) | 7.8 µg/mL (≈ 20.5 µM) | 2.2 µg/mL (≈ 5.78 µM) | 31.3 µg/mL (≈ 82.3 µM) | 11.8 µg/mL (≈ 31 µM) |  | IC50 at 3 days [2]: 86.1 ± 0.5 µg/mL (≈ 226 µM)
